Patent US12297171B2, “EP2 antagonist compounds” (Reservoir Neuroscience, Inc., priority 2021, dated 2025)

Experiments:
[1] = target: T1, EP2 receptor (Homo sapiens, UniProt P43116); assay: EP2 potency assay (cAMP TR-FRET, LANCE Ultra cAMP kit, antagonism of prostaglandin E2 at EC80); format: cell-based; conditions: CHO-K1 cells transfected with EP2 receptor
T1 construct: expressed in transfected cells; host or cells: CHO-K1 cells (ATCC), transiently transfected with FuGENE 6
Method: Compound potency was measured using a cAMP TR-FRET assay.
CHO-K1 cells (ATCC) were seeded at a density of 9.75×10^5 in 6 cm plates, and then on the following day cell media was changed to Opti-Mem I reduced serum media (Gibco), and transfected with a plasmid for expression of the EP2 receptor (the target receptor of interest), using the FuGENE 6 Transfection reagent (Promega). After 6 hours incubation, the cell media was replaced with F12 medium supplemented with 10% FBS and 100 U/ml Pen-Strep. 24 hours after transfection, cells were harvested and seeded at a density of 3000 cells/well in a 384 well plate to perform the cAMP assay, using the LANCE Ultra cAMP assay kit (PerkinElmer).
For each test compound of interest, 10 nl/well of serially diluted test compound was added to each well, resulting in a range of 10 serially diluted compound concentrations from 10000 nM to 0.038 nM, with duplicate wells for each concentration. Plates were then centrifuged at 1000 rpm for 1 min, agitated at 600 rpm at R.T. for 2 min, and incubated at 25° C. for 5 min. The reference agonist, prostaglandin E2 (MCE), was added to each well at the appropriate concentration to reach its EC80 value. Plates were then centrifuged at 1000 rpm for 1 min, agitated at 600 rpm at R.T. for 2 min, and incubated at 25° C. for 30 min.
To measure levels of cAMP, 5 μl/well of Eu-cAMP working solution and 5 μl/well of Ulight-anti-cAMP working solution were added to each well, and plate was centrifuged at 1000 rpm for 1 min, agitated at 600 rpm at R.T. for 2 min, and incubated at 25° C. for 15 min. Levels of TR-FRET fluorescence were measured in each well using an EnVision microplate reader (excitation wavelength=337 nm and emission wavelength=615 and 665 nm). A dose-response curve was prepared by plotting percent inhibition for each compound concentration, and then IC50 was calculated by fitting a curve to the plotted values and extrapolating the IC50 concentration.
Potency data is grouped into categories of AA (IC50<100 nM); A (IC50=100 to 500 nM); B (IC50=500 nM to 1 μM); C (IC50=1 μM to 5 μM); and D (IC50>5 μM).

[2] = Human liver microsome stability; format: in vitro ADME; conditions: human liver microsomes 0.5 mg/mL, 37° C., 60 minutes; for half-life at 2 μM: read-out: T1/2 (microsomal); for microsomal CLint at 2 μM: read-out: in vitro CLint (microsomal)
Method: The tested compound was incubated in duplicate with human liver microsomes (0.5 mg/mL) at 37° C. These incubations were carried out at a final test article concentration of 2 μM over a total incubation period of 60 minutes. Samples were taken at 0, 15, 30, 45 and 60 min and the reaction terminated by addition of 4 volumes of acetonitrile containing internal standard (100 nM alprazolam, 200 nM imipramine, 200 nM labetalol and 2 μM ketoprofen). Diclofenac was used as a positive control in this study. The samples were analyzed by UPLC-MS/MS to determine the concentration of the test compound and the percent remaining, intrinsic clearance (in vitro CLint) and half-life (t1/2) values were calculated.
Chromatographic analyses were performed on a Shimadzu UPLC apparatus (Kyoto, Japan) consisting of a gradient pump (model LC-30AD), an automatic injector (model HTC PAL System) and an on-line degasser (model DGU-20A5R). Detection was a triple quadrupole tandem mass spectrometer equipped with a turbo ion spray interface (API 4000/Triple Quad 4500/Triple Quad 5500/Triple Quad 6500). Data acquisition and integration were carried out with LC-MS software (Analyst 1.6) linked directly to the LC-MS/MS system. Chromatographic separations were achieved on a XSelect Hss T3 2.5μ (2.1×30 mm) Column. The mobile phase was 0.1% formic acid in water (A) and 0.1% formic acid in acetonitrile (B). The flow rate was 1.0 mL/min and column was maintained at 40° C.
Half-life (T1/2) data is measured in minutes, and in Table B2, in both microsomal and hepatic assays, the data is grouped into categories of: • A T1/2=1000+ • B T1/2=500 to 1000 • C T1/2=100 to 500 • D T1/2<100
In vitro clearance (CLint) data is measured in μL/min/mg prot, and in Table B2, in both microsomal and hepatic assays, the data is grouped into categories of: • A CLint<1 • B CLint=1 to 10 • C CLint=10 to 20 • D CLint=20+

T1 sequence (P43116 whole entry): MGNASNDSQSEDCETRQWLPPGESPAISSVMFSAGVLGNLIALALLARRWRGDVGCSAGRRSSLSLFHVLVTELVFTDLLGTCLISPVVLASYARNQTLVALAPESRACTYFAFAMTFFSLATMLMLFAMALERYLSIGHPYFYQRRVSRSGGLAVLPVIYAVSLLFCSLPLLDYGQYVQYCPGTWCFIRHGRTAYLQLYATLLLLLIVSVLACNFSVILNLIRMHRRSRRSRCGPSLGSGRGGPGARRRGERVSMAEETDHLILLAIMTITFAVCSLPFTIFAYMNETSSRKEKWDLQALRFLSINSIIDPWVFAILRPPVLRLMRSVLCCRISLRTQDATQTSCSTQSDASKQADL

**Q.** For `COc1ccc(C(=O)N2CCC(COc3ccc(-c4ccc(C#N)cc4)cc3)(C(=O)NCC(F)(F)F)C2)cc1` (stereo not drawn) [Compound 4-20, 3-(((4′-cyano-[1,1′-biphenyl]-4-yl)oxy)methyl)-1-(4-methoxybenzoyl)-N-(2,2,2-trifluoroethyl)pyrrolidine-3-carboxamide], which IC50 [1] is on record?
**A.** > 5000 nM

**Q.** Which results are given for `COc1ccc2cc(OCC3(n4nn[nH]c4=O)CN(C(=O)c4ccc(F)cc4)C3)ccc2c1` [Compound 1-2, 1-(1-(4-fluorobenzoyl)-3-(((6-methoxynaphthalen-2-yl)oxy)methyl)azetidin-3-yl)-1,4-dihydro-5H-tetrazol-5-one]?
**A.** half-life at 2 μM [2]: 1.67 to 8.33 h; microsomal CLint at 2 μM [2]: 1 to 10 µL/min/mg

**Q.** For `COc1ccc(C(=O)N2CCC(COc3ccc(-c4ccc(C#N)cc4)cc3)(C(=O)NS(=O)(=O)C3CC3)C2)cc1` (stereo not drawn) [Compound 4-30, 3-[({4′-cyano-[1,1′-biphenyl]-4-yl}oxy)methyl]-N-(cyclopropanesulfonyl)-1-(4-methoxybenzoyl)pyrrolidine-3-carboxamide], which IC50 [1] is on record?
**A.** 1000 to 5000 nM

**Q.** With `N#Cc1ccc(-c2ccc(OCC3(C(=O)O)CCN(C(c4ccc(Br)cc4)C(F)(F)F)C3)cc2)cc1` (stereo not drawn) [Compound 4-34, 1-[1-(4-bromophenyl)-2,2,2-trifluoroethyl]-3-[({4′-cyano-[1,1′-biphenyl]-4-yl}oxy)methyl]pyrrolidine-3-carboxylic acid] as the molecule, how does the IC50 [1] read?
**A.** > 5000 nM

**Q.** For `COCS(=O)(=O)NC(=O)C1(COc2ccc(-c3ccc(C#N)cc3)cc2)CCN(C(=O)c2ccc(OC)cc2)C1` (stereo not drawn) [Compound 4-27, 3-[({4′-cyano-[1,1′-biphenyl]-4-yl}oxy)methyl]-1-(4-methoxybenzoyl)-N-methoxymethanesulfonylpyrrolidine-3-carboxamide], which IC50 [1] is on record?
**A.** 100 to 500 nM

**Q.** With `CONC(=O)C1(COc2ccc(-c3ccc(C#N)cc3)cc2)CCN(C(=O)c2ccc(OC)cc2)C1` (stereo not drawn) [Compound 4-23, 3-(((4′-cyano-[1,1′-biphenyl]-4-yl)oxy)methyl)-N-methoxy-1-(4-methoxybenzoyl)pyrrolidine-3-carboxamide] as the molecule, how does the IC50 [1] read?
**A.** > 5000 nM

**Q.** With `COc1ccc(C(=O)N2CCC(COc3ccc(-c4ccc(C#N)cc4)cc3)(C(=O)N(C)O)C2)cc1` (stereo not drawn) [Compound 4-22, 3-(((4′-cyano-[1,1′-biphenyl]-4-yl)oxy)methyl)-N-hydroxy-1-(4-methoxybenzoyl)-N-methylpyrrolidine-3-carboxamide] as the molecule, how does the IC50 [1] read?
**A.** 1000 to 5000 nM

**Q.** For `COc1ccc(C(=O)N2CCC(COc3ccc(-c4ccc(C#N)cc4)cc3)(C(=O)NC#N)C2)cc1` (stereo not drawn) [Compound 4-21, N-cyano-3-(((4′-cyano-[1,1′-biphenyl]-4-yl)oxy)methyl)-1-(4-methoxybenzoyl)pyrrolidine-3-carboxamide], which IC50 [1] is on record?
**A.** 1000 to 5000 nM

**Q.** For `COc1ccc(C(=O)N2CCC(COc3ccc(-c4ccc(C#N)cc4)cc3)(C(=O)NS(=O)(=O)c3ccccc3)C2)cc1` (stereo not drawn) [Compound 4-31, N-(benzenesulfonyl)-3-[({4′-cyano-[1,1′-biphenyl]-4-yl}oxy)methyl]-1-(4-methoxybenzoyl)pyrrolidine-3-carboxamide], which IC50 [1] is on record?
**A.** > 5000 nM

**Q.** With `COc1ccc(C(N2CCC(COc3ccc(-c4ccc(C#N)cc4)cc3)(C(=O)O)C2)C(F)(F)F)cc1` (stereo not drawn) [Compound 4-1, 3-[({4′-cyano-[1,1′-biphenyl]-4-yl}oxy)methyl]-1-[2,2,2-trifluoro-1-(4-methoxyphenyl)ethyl]pyrrolidine-3-carboxylic acid; trifluoroacetic acid] as the molecule, how does the IC50 [1] read?
**A.** > 5000 nM

**Q.** Which results are given for `COc1ccc(C(=O)N2CCC(C#N)(COc3ccc(-c4ccc(C#N)cc4)cc3)C2)cc1` (racemic) [Compound 2-3, 3-(((4′-cyano-[1,1′-biphenyl]-4-yl)oxy)methyl)-1-(4-methoxybenzoyl)pyrrolidine-3-carbonitrile]?
**A.** half-life at 2 μM [2]: < 1.67 h; microsomal CLint at 2 μM [2]: > 20 µL/min/mg

**Q.** For `COc1ccc(C(=O)N2CCC(COc3ccc(-c4ccc(C#N)cc4)cc3)(c3cc[nH]c(=O)c3)C2)cc1` (stereo not drawn) [Compound 4-16, 4′-{[1-(4-methoxybenzoyl)-3-(2-oxo-1H-pyridin-4-yl)pyrrolidin-3-yl]methoxy}-[1,1′-biphenyl]-4-carbonitrile], which IC50 [1] is on record?
**A.** > 5000 nM

**Q.** Which IC50 [1] does the source give for `COc1ccc(C(=O)N2CCC(COc3ccc(-c4ccc(C#N)cc4)cc3)(C(=O)NO)C2)cc1` (stereo not drawn) [Compound 4-13, 3-(((4′-cyano-[1,1′-biphenyl]-4-yl)oxy)methyl)-N-hydroxy-1-(4-methoxybenzoyl)pyrrolidine-3-carboxamide] here?
**A.** 1000 to 5000 nM

**Q.** Which IC50 [1] does the source give for `COc1ccc(C(=O)N2CCC(COc3ccc(-c4ccc(C#N)cc4)cc3)(C(=O)NS(=O)(=O)C(C)C)C2)cc1` (stereo not drawn) [Compound 4-28, 3-[({4′-cyano-[1,1′-biphenyl]-4-yl}oxy)methyl]-1-(4-methoxybenzoyl)-N-(propane-2-sulfonyl)pyrrolidine-3-carboxamide] here?
**A.** 500 to 1000 nM

**Q.** Which half-life at 2 μM [2] does the source give for `COc1ccc2cc(OCC3(C#N)CN(C(=O)c4ccc(F)cc4)C3)ccc2c1` [Compound 1-3, 1-(4-fluorobenzoyl)-3-(((6-methoxynaphthalen-2-yl)oxy)methyl)azetidine-3-carbonitrile] here?
**A.** < 1.67 h

**Q.** What about the microsomal CLint at 2 μM [2] of the same molecule?
**A.** > 20 µL/min/mg

**Q.** For `COc1ccc(C(=O)N2CCC(COc3ccc(-c4ccc(C#N)cc4)cc3)(C(=O)NS(=O)(=O)C(C)(C)C)C2)cc1` (stereo not drawn) [Compound 4-29, 3-[({4′-cyano-[1,1′-biphenyl]-4-yl}oxy)methyl]-1-(4-methoxybenzoyl)-N-(2-methylpropane-2-sulfonyl)pyrrolidine-3-carboxamide], which IC50 [1] is on record?
**A.** > 5000 nM

**Q.** With `COc1ccc(C(=O)N2CCC(COc3ccc(-c4ccc(C#N)cc4)cc3)(C(=O)NS(=O)(=O)CC(F)(F)F)C2)cc1` (stereo not drawn) [Compound 4-26, 3-[({4′-cyano-[1,1′-biphenyl]-4-yl}oxy)methyl]-1-(4-methoxybenzoyl)-N-(2,2,2-trifluoroethanesulfonyl)pyrrolidine-3-carboxamide] as the molecule, how does the IC50 [1] read?
**A.** 1000 to 5000 nM

**Q.** For `CCS(=O)(=O)NC(=O)C1(COc2ccc(-c3ccc(C#N)cc3)cc2)CCN(C(=O)c2ccc(OC)cc2)C1` (stereo not drawn) [Compound 4-25, 3-[({4′-cyano-[1,1′-biphenyl]-4-yl}oxy)methyl]-N-(ethanesulfonyl)-1-(4-methoxybenzoyl)pyrrolidine-3-carboxamide], which IC50 [1] is on record?
**A.** 500 to 1000 nM

**Q.** Which half-life at 2 μM [2] does the source give for `COc1ccc(C(=O)N2CCC(COc3ccc(-c4ccc(C#N)cc4)cc3)(n3nn[nH]c3=O)C2)cc1` (racemic) [Compound 2-2, 4′-((1-(4-methoxybenzoyl)-3-(5-oxo-4,5-dihydro-1H-tetrazol-1-yl)pyrrolidin-3-yl)methoxy)-[1,1′-biphenyl]-4-carbonitrile] here?
**A.** 8.33 to 16.7 h

**Q.** And the microsomal CLint at 2 μM [2]?
**A.** 1 to 10 µL/min/mg

**Q.** What about the IC50 [1] of the same molecule?
**A.** 500 to 1000 nM
